Experimental data from a melting point compilation (Tetko et al.; mined from patent text by program, amines drawn as free bases though some values may be those of a salt).

| melting point [°C] | Compound |
| --- | --- |
| 160 to 161 | c1cn2nc(N3CCOCC3)c3c(c2n1)CCCC3 |
| 98 to 100 | CCC(=C(c1ccc(I)cc1)c1ccc(OCCCCl)cc1)c1ccccc1 |
| 227 to 228 | Cc1c(C(=O)O)c(=O)c(-c2ccccc2)cn1C |
| 264 | O=C1c2nccnc2C(Cl)N1c1ccc2ccc(Cl)nc2n1 (centres undefined) |
| 124 | CC(=O)n1c(=O)n(CCCN2CCN(C(c3ccccc3)c3ccccc3)CC2)c2ccccc21 |
| 181 | N#Cc1ccc(NC(=S)NCc2cccnc2)cc1 |
| 150 to 155 | O=C1NC=NC2CN=C(c3ccccc3)c3cc(Cl)ccc3C12 (centres undefined) |
| 201 to 202 | Cc1c(C)c2c(c(C)c1NC(=O)CC(C)(C)C)C(c1ccc(Br)cc1)C(C)(C)O2 (centres undefined) |
| 180 | C=Cc1ccc2c(NCc3ccc(NC(=O)C4CCN(Cc5ccccc5)CC4)cc3)nc(N(C)C)nc2c1 |
| 111 to 112 | COc1ccc(N2CCN(c3c(C)c(C)c4c(c3C)C(O)(c3ccco3)C(C)(C)O4)CC2)cc1 (centres undefined) |
| 61 to 63 | COC(=O)CC[C@H](NC(=O)OCc1ccccc1)C(=O)O |
| 191 to 194 | CN1Cc2cc(Cl)ccc2C(=O)c2cc(CC(=O)O)ccc21 |
| 219 to 221 | CC(=O)Nc1c(C(=O)c2ccccc2)[nH]c2cc(N)ccc12 |
| 173 to 175 | Cc1cccc(N2CC(=O)N(C)C(=O)N2)c1 |
| 218 | O=Cc1cc(Cl)cc(C(=O)O)c1O |
| 135 to 136 | CC1CN(c2ccc(Nc3cc(Br)cn(C)c3=O)nc2)C1 |
| 267 to 269 | COc1ccc(C=Cn2ncc3ccccc3c2=O)cc1 |
| 221 to 222 | Cc1nc(-c2ccccc2N)[nH]c1-c1cccnc1 |
| 131 to 133 | CN(C)C(=O)CN1CCC(c2ccc(Nc3nc4c(-c5cnn(-c6ccc(F)cc6)c5)cccn4n3)cc2)CC1 |
| 174 to 180 | Cc1ncc(COP(=O)(O)O)c(CN(CCN(CC(=O)O)Cc2c(COP(=O)(O)O)cnc(C)c2O)CC(=O)O)c1O |
| 85 to 86 | C#CCn1nnc(SC(c2ccccc2)c2ccccc2)n1 |
| 129 to 131 | COc1cc(COc2nn(-c3ccccc3)cc2/C=C/C(N)=S)ccc1OCc1nc(-c2ccco2)oc1C |
| 108 to 111 | COC(=O)C(C)(C)S(=O)(=O)N1CCC(c2ccc(-c3cccc(OCCO)n3)c(C)c2)CC1 |
| 151 to 155 | CCOC(=O)C(NC(=O)NN1CC(=O)NC1=O)c1cccs1 (centres undefined) |
| 70 to 71 | Cc1cccc(CC(=O)O)c1OCCCc1cc(OC(C)C)nn1Cc1ccc(Cl)cc1Cl |

| melting point [°C] | Compound |
| --- | --- |
| 68.5 to 70.5 | COc1cc(C)c(Cc2cnoc2)cc1OC |
| 210 | CC(CCNC(=O)c1cc2cc(Cl)ccc2[nH]1)n1ccnc1 (centres undefined) |
| 164 to 165 | NC(=O)c1cnc2c(N)cccc2c1 |
| 256 to 259 | Cc1cccc(-c2nc(Nc3ccc(Cl)cc3)c3ccccc3n2)n1 |
| 187 to 189 | CCOC(=O)C(=CNc1cnnn1C)C(=O)c1cc(F)c(Cl)nc1Cl |
| 143 to 145 | CCOC(=O)N1Cc2c(n(-c3ccc(F)cc3)c3ccc(F)cc23)C1 |
| 95 to 97 | CC1(C(=O)Cn2cncn2)COCOC1 |
| 128 | Cc1ccc(F)cc1NC(=O)CN1CCNC(CO)C1 (centres undefined) |
| 223 | CCCCc1nc2ccn(Cc3ccc(N)cc3)c(=O)c2n1Cc1ccc(-c2ccccc2C#N)cc1 |
| 110 to 112 | COC(=O)[C@@H]1CCCN1C(=O)Nc1cc(Cl)cc(Cl)c1 |
| 138 | Oc1ccc2c(c1O)OCC(c1ccccc1)C2 (centres undefined) |
| 119 to 120 | O=C(O)Cc1cc(Cl)c(Cl)cc1[N+](=O)[O-] |
| 109 to 110 | CCC([O-])=C(C(=O)OC)N1C(=O)CC1[N+](CC)(CC)CC (centres undefined) |
| 72 to 74 | CC(=O)Oc1ccc(OCc2ccccc2)cc1CC(Br)CBr (racemic) |
| > 350 | O=C1NC(=O)c2c1c(I)cc1[nH]c3ccc(O)cc3c21 |
| 193 to 195 | Cc1nc[nH]c1CSCCNC(N)=C[N+](=O)[O-] |
| 50 | CCn1ccccc1=S |
| 83.5 to 85.5 | Brc1cc2c(nc1-c1ccccc1)OCC2 |
| 209 to 210 | CCOC(=O)c1cnc2n(c1=O)C(C)CCC2=NNC(=O)c1ccccc1 (centres undefined) |
| 140 to 143 | O=C1OC2CC3CC(C2)OC1O3 |
| 51 to 52 | CC(C)(C)Oc1ccc2cc(C=O)ccc2c1 |
| 76 to 78 | COCCN1CC(c2ccccc2)NC1=S (centres undefined) |
| 66 | COc1ccc(/C=C/CCCCO)cc1 |
| 114 | CC1=C(CCCl)C(=O)C2Sc3ccccc3N2C1 (centres undefined) |
| 132 to 133 | COc1ccc(-c2cc(NC(=O)CCCCN3CCCN(C(C)=O)CC3)n[nH]2)cc1 |

| melting point [°C] | Compound |
| --- | --- |
| < 50 | CCSCCn1c(=N)sc2cc(OC(F)(F)C(F)(F)F)ccc21 |
| 198 to 210 | O=C(O)C1=Cc2cccc(F)c2OC1C(F)(F)F (centres undefined) |
| 230 to 232 | Cc1cc(N2CCC=C(C(N)=O)C2)c2cccc(-c3ccc(Cl)cc3Cl)c2n1 |
| 304 | CN(C)C=C1Nn2c(nc(-c3ccc([N+](=O)[O-])o3)c2N)S1 |
| 123 to 125 | O=C(Nc1cccnc1NCc1ccc(Cl)cc1)c1ccccn1 |
| 135 | C#Cc1ncn2c(C(F)F)cc(-c3ccc(C(F)(F)F)cc3)nc12 |
| 270 | CNC(=O)c1ccc(C(=O)O)cc1 |
| 156 to 157 | Cc1noc(NC(=O)N2CCC(c3nc(-c4ccccc4)cs3)CC2)c1C |
| 98 to 99.8 | CCC(=O)N(Cc1cccc2c1S(=O)(=O)N=C2C1=C(O)C(C(C)(C)C)N(Cc2ccc(F)c(C)c2)C1=O)S(C)(=O)=O (centres undefined) |
| 197 to 199 | O=C(O)COc1ccc(C2=CC(=O)CC(c3ccccc3)C2)c(Cl)c1Cl (centres undefined) |
| 143 to 144 | CC(C)(C)OC(=O)N1CCN(c2cccc3c2ccn3S(=O)(=O)c2ccccc2)CC1 |
| 94.5 to 95.5 | CCOC(=O)c1oc(Br)nc1C |
| 92 to 95 | CC(CN(C)C)CN1c2ccccc2OCOc2ccc(Cl)cc21 (single isomer, unassigned; (-)) |
| 176 to 178 | CCOC(=O)NC[C@H]1CN(c2ccc(N3CCC(n4ncnn4)CC3)c(F)c2)C(=O)O1 |
| 198 to 200 | CC(C)n1cc(-c2ccc(C=O)cc2)c2c(N)ncnc21 |
| 183 to 186 | CNC(=O)NC1(C)CCCc2ccccc21 (centres undefined) |
| 169 to 170 | CCCCc1oc2ccccc2c1-c1ncc(-c2ccc3cc(OCc4ccc(C(=O)OC)cc4)ccc3c2)o1 |
| 149 to 151 | C=CC(=O)NCc1c(-c2ccccc2)noc1C |
| 222 to 224 | O=c1ccn2c(n1)COc1ccc(Cl)cc1-2 |
| 194 to 196 | Cc1nc(Nc2ccccc2)sc1C(=O)c1sc(Nc2ccccc2)nc1C |
| 122 to 125 | N#Cc1ccc(-c2ccc(-c3cccs3)s2)s1 |
| 175 to 177 | CC(=O)Nc1ccc(Cl)c2c1C(=O)CCN2C(C)=O |
| 152 to 153 | CN1CCN(c2ccc(C(=O)CCC(=O)N3CCC(c4ccc(Cl)cc4)CC3)cc2)CC1 |
| 150 to 152 | CCOCc1nc2c(N)nc3cccnc3c2n1NC(C)C |
| 70 to 71 | CCC(CC)(CC(=O)Nc1cccc(SCc2ccc3ccc(F)cc3n2)c1)C(=O)O |

| melting point [°C] | Compound |
| --- | --- |
| 240 to 242 | CCn1c(C)c(C)c(=O)c(C(=O)O)c1-c1ccc(Cl)cc1 |
| 70 | NC(=S)Cc1cccc(Oc2ccccc2)c1O |
| 261 to 263 | O=C(O)c1ccc(COCc2csc3nc(C(=O)NCc4cccc(C(F)(F)F)c4)[nH]c(=O)c23)cc1 |
| 125 to 127 | O=C1OC(CNC(=S)C(F)F)CN1c1ccc(N2CCOCC2)c(F)c1 (centres undefined) |
| 63 to 64 | CCC(=O)C1C(=O)CC(c2ccccc2Cl)CC1=O (centres undefined) |
| 158 | CON(C)C(=O)c1cc(-n2c(=O)cc(C(F)(F)F)n(C)c2=O)c(F)cc1Cl |
| 203 to 205 | CCCNC(=O)NS(=O)(=O)c1cc2c(cc1OC)OCC(NC(=O)c1cc(Cl)ccc1OC)C2 (centres undefined) |
| 92 | Cc1cn(C(=O)OC(C)(C)C)c2ccc(Br)cc12 |
| 58 to 60 | CCCCCCCCCCOc1cc(N=Nc2ccccc2)ccc1OCC1CC1 |
| 158 | Cc1cc(CN(C)c2cc(-c3ccc(Cl)cc3)nn2C)cc(C)c1OC(C)(C)C(=O)O |
| 191 to 193 | CC1(C)Oc2ccc(OCc3nc4cc(F)c(F)cc4s3)cc2[C@H](O)[C@@H]1c1cccc(NS(=O)(=O)C(F)(F)F)c1 |
| 166 to 169 | CCCc1nc(C(C)(C)O)c(C(=O)O)n1Cc1ccc(-c2ccccc2-c2nnn[nH]2)cc1 |
| 178 to 180 | COc1ccc(N2CCN(CCC3OCCc4ccc(C(N)=O)cc43)CC2)cc1 (centres undefined) |
| 169 to 171 | CCC(=O)N[C@@H](C)C(=O)N1CCC[C@H]1C(=O)O |
| 180 to 181 | CSc1cc(NCc2nc3ccccc3o2)c(=O)[nH]c1C |
| 152 to 153 | CCN1CCNC(=O)C1c1ccc(Nc2nc(Br)cn(C)c2=O)cc1 (centres undefined) |
| 53 to 55 | COC(=O)/C=C/c1cccc(Br)c1 |
| 178 to 180 | C=CC[C@@H](C(=O)N[C@H](C(=O)N[C@H](C)c1ccccc1)C(C)(C)C)[C@@H]1OC(C)(C)OC1=O |
| 140 to 141 | CCc1cc(C(=O)c2ccccc2Cl)c(-n2c(C)nnc2CO)s1 |
| 95 | COCC(COC)(Cc1ccccc1)Cc1ccccc1 |
| 107 to 108 | Cc1nc2c(s1)C(=O)C(C=O)CC2 (centres undefined) |
| 159 to 161 | CC(=Cc1ccccc1)S(=O)(=O)NC(=O)N1CCCCC1 |
| 100 to 102 | COc1cccc(-c2n[nH]c(-c3ccccc3C)n2)c1 |
| 65 to 68 | CC(=O)NCC1CN(c2ccc(N3CCC(O)(C#N)C(C)(C)C3)c(F)c2)C(=O)O1 (centres undefined) |

| Compound | melting point [°C] |
| --- | --- |
| CC1Cc2ccc(Br)cc2C(c2ccc(N)cc2)=NN1C(N)=O (centres undefined) | 218 to 221 |
| CN(C)c1ccc(C2CC3(C)C(O)CCC3C3CCC4=CC(=O)CCC4=C23)cc1 (centres undefined) | 166 to 167 |
| COc1nc(C(=O)O)ccc1CN1CC1C#N (centres undefined) | 96 to 97 |
| O=C1c2cc(Cl)ccc2CC1Br (centres undefined) | 84 to 87 |
| CC(C)N[C@H](CO)Cc1ccccc1 | 65 to 66 |
